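In this assay, cells in 96-well plates receive the compound at five concentrations for 48 hours. Endpoints are linearly interpolated between the surrounding concentrations. GI50 is the concentration that inhibits growth by half. TGI is the concentration that stops growth completely.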
Experiments:
Test in all cases: growth of human tumour cells (NCI), 48 h
NCI-H23 lung = test system: NCI-H23 lung
EKVX NSCLC = test system: EKVX NSCLC
HCC-2998 colon = test system: HCC-2998 colon
PC-3 prostate = test system: PC-3 prostate
MALME-3M melanoma = test system: MALME-3M melanoma
SK-MEL-5 melanoma = test system: SK-MEL-5 melanoma
LOX IMVI melanoma = test system: LOX IMVI melanoma
SN12C renal = test system: SN12C renal
SNB-19 CNS = test system: SNB-19 CNS
KM12 colon = test system: KM12 colon
MCF7 breast = test system: MCF7 breast
MDA-MB-435 = test system: MDA-MB-435
UACC-62 melanoma = test system: UACC-62 melanoma
U251 CNS = test system: U251 CNS
MDA-MB-231 breast = test system: MDA-MB-231 breast
SK-MEL-28 melanoma = test system: SK-MEL-28 melanoma
CCRF-CEM leukemia = test system: CCRF-CEM leukemia
NCI-H460 lung = test system: NCI-H460 lung
HS 578T breast = test system: HS 578T breast
NCI-H522 lung = test system: NCI-H522 lung
TK-10 renal = test system: TK-10 renal
RPMI-8226 leukemia = test system: RPMI-8226 leukemia
NCI/ADR-RES ovarian = test system: NCI/ADR-RES ovarian
ACHN renal = test system: ACHN renal
K-562 leukemia = test system: K-562 leukemia
OVCAR-3 ovarian = test system: OVCAR-3 ovarian
HL-60(TB) leukemia = test system: HL-60(TB) leukemia
SF-295 CNS = test system: SF-295 CNS
SF-268 CNS = test system: SF-268 CNS
RXF 393 renal = test system: RXF 393 renal
A498 renal = test system: A498 renal
COLO 205 colon = test system: COLO 205 colon
HOP-62 NSCLC = test system: HOP-62 NSCLC
HOP-92 NSCLC = test system: HOP-92 NSCLC
UO-31 renal = test system: UO-31 renal
HCT-15 colon = test system: HCT-15 colon
SR leukemia = test system: SR leukemia
786-0 renal = test system: 786-0 renal
SK-OV-3 ovarian = test system: SK-OV-3 ovarian
SF-539 CNS = test system: SF-539 CNS
OVCAR-5 ovarian = test system: OVCAR-5 ovarian
NCI-H226 lung = test system: NCI-H226 lung
SW-620 colon = test system: SW-620 colon
OVCAR-4 ovarian = test system: OVCAR-4 ovarian
T-47D breast = test system: T-47D breast
A549 NSCLC = test system: A549 NSCLC
BT-549 breast = test system: BT-549 breast
DU-145 prostate = test system: DU-145 prostate
SNB-75 CNS = test system: SNB-75 CNS
IGROV1 ovarian = test system: IGROV1 ovarian
HT29 colon = test system: HT29 colon
OVCAR-8 ovarian = test system: OVCAR-8 ovarian
M14 melanoma = test system: M14 melanoma
MOLT-4 leukemia = test system: MOLT-4 leukemia
UACC-257 melanoma = test system: UACC-257 melanoma
SK-MEL-2 melanoma = test system: SK-MEL-2 melanoma
HCT-116 colon = test system: HCT-116 colon

## CN(C)c1ccc(N2Cc3ccccc3OC3=C2C(=O)c2c(O)ccc(O)c2C3=O)cn1
NCI-H23 lung
  GI50: 277 nM
  TGI: 927 nM
EKVX NSCLC
  GI50: 242 nM
  TGI: 1210 nM
HCC-2998 colon
  GI50: 1180 nM
  TGI: 2580 nM
PC-3 prostate
  GI50: 221 nM
  TGI: 867 nM
MALME-3M melanoma
  GI50: 218 nM
  TGI: 495 nM
SK-MEL-5 melanoma
  GI50: 722 nM
  TGI: 2010 nM
LOX IMVI melanoma
  GI50: 160 nM
  TGI: 480 nM
SN12C renal
  GI50: 261 nM
  TGI: 1030 nM
SNB-19 CNS
  GI50: 563 nM
  TGI: 2240 nM
KM12 colon
  GI50: 1030 nM
  TGI: 3080 nM
MCF7 breast
  GI50: 150 nM
  TGI: 456 nM
MDA-MB-435
  GI50: 237 nM
  TGI: 544 nM
UACC-62 melanoma
  GI50: 211 nM
  TGI: 638 nM
U251 CNS
  GI50: 311 nM
  TGI: 1200 nM
MDA-MB-231 breast
  GI50: 234 nM
  TGI: 745 nM
SK-MEL-28 melanoma
  GI50: 275 nM
  TGI: 762 nM
CCRF-CEM leukemia
  GI50: 102 nM
  TGI: 815 nM
NCI-H460 lung
  GI50: 1280 nM
  TGI: 3670 nM
HS 578T breast
  GI50: 444 nM
  TGI: 26100 nM
NCI-H522 lung
  GI50: 53.5 nM
  TGI: 217 nM
TK-10 renal
  GI50: 348 nM
  TGI: 908 nM
RPMI-8226 leukemia
  GI50: 235 nM
  TGI: 797 nM
NCI/ADR-RES ovarian
  GI50: 284 nM
ACHN renal
  GI50: 158 nM
  TGI: 698 nM
K-562 leukemia
  GI50: 177 nM
  TGI: 1580 nM
OVCAR-3 ovarian
  GI50: 233 nM
  TGI: 695 nM
HL-60(TB) leukemia
  GI50: 147 nM
  TGI: 538 nM
SF-295 CNS
  GI50: 1800 nM
  TGI: 4320 nM
SF-268 CNS
  GI50: 370 nM
  TGI: 1590 nM
RXF 393 renal
  GI50: 152 nM
  TGI: 318 nM
A498 renal
  GI50: 2150 nM
  TGI: 5800 nM
COLO 205 colon
  GI50: 174 nM
  TGI: 380 nM
HOP-62 NSCLC
  GI50: 1560 nM
  TGI: 3860 nM
HOP-92 NSCLC
  GI50: 200 nM
  TGI: 467 nM
UO-31 renal
  GI50: 135 nM
  TGI: 351 nM
HCT-15 colon
  GI50: 178 nM
  TGI: 502 nM
SR leukemia
  GI50: 127 nM
  TGI: > 100000 nM
786-0 renal
  GI50: 204 nM
  TGI: 423 nM
SK-OV-3 ovarian
  GI50: 3050 nM
  TGI: 11600 nM
SF-539 CNS
  GI50: 225 nM
  TGI: 602 nM
OVCAR-5 ovarian
  GI50: 510 nM
  TGI: 1560 nM
NCI-H226 lung
  GI50: 854 nM
  TGI: 3660 nM
SW-620 colon
  GI50: 178 nM
  TGI: 586 nM
OVCAR-4 ovarian
  GI50: 330 nM
  TGI: 1290 nM
T-47D breast
  GI50: 258 nM
  TGI: 1270 nM
A549 NSCLC
  GI50: 2320 nM
  TGI: 6030 nM
BT-549 breast
  GI50: 195 nM
  TGI: 507 nM
DU-145 prostate
  GI50: 223 nM
  TGI: 510 nM
SNB-75 CNS
  GI50: 769 nM
  TGI: 6930 nM
IGROV1 ovarian
  GI50: 280 nM
  TGI: 1000 nM
HT29 colon
  GI50: 232 nM
  TGI: 578 nM
OVCAR-8 ovarian
  GI50: 268 nM
  TGI: 1260 nM
M14 melanoma
  GI50: 241 nM
  TGI: 713 nM
MOLT-4 leukemia
  GI50: 112 nM
  TGI: 843 nM
UACC-257 melanoma
  GI50: 311 nM
  TGI: 1140 nM
SK-MEL-2 melanoma
  GI50: 541 nM
  TGI: 1490 nM
HCT-116 colon
  GI50: 124 nM
  TGI: 288 nM

Source: PubChem BioAssay (NCI)
